Data from patent publication US10093658B2, “Bifunctional compounds and use for reducing uric acid levels” (Acquist LLC, priority 2015, dated 2018).
pIC50: −log10 of the molar value. Where “and” joins values, the source holds several entries; their conditions need not be identical. Equal values may be shown once. Read-outs that look alike come from different tables or passages of the source.

Tests used:
[1] = target: Xanthine oxidase (Homo sapiens (Human), UniProt P47989); experiment: Fluorescence-based xanthine oxidase activity assay; type: biochemical; settings: for XO inhibition (in words): qualitative statement
[2] = target: URAT1 (SLC22A12) (Homo sapiens (Human), UniProt Q96S37); experiment: URAT1 (SLC22A12) cellular uptake assay, 3H-orotate transport in stably transfected URAT-1/CHO cells; settings: for URAT1 inhibition (in words): qualitative statement
[3] = fluorescence-based assay, triplicate, 10 concentrations, read-out: Xanthine Oxidase IC50
[4] = read-out: URAT1 IC50, URAT-1/CHO cells, 3H-orotate uptake, URAT1 assay as described herein

Xanthine oxidase, sequence (P47989 whole entry, species assumed): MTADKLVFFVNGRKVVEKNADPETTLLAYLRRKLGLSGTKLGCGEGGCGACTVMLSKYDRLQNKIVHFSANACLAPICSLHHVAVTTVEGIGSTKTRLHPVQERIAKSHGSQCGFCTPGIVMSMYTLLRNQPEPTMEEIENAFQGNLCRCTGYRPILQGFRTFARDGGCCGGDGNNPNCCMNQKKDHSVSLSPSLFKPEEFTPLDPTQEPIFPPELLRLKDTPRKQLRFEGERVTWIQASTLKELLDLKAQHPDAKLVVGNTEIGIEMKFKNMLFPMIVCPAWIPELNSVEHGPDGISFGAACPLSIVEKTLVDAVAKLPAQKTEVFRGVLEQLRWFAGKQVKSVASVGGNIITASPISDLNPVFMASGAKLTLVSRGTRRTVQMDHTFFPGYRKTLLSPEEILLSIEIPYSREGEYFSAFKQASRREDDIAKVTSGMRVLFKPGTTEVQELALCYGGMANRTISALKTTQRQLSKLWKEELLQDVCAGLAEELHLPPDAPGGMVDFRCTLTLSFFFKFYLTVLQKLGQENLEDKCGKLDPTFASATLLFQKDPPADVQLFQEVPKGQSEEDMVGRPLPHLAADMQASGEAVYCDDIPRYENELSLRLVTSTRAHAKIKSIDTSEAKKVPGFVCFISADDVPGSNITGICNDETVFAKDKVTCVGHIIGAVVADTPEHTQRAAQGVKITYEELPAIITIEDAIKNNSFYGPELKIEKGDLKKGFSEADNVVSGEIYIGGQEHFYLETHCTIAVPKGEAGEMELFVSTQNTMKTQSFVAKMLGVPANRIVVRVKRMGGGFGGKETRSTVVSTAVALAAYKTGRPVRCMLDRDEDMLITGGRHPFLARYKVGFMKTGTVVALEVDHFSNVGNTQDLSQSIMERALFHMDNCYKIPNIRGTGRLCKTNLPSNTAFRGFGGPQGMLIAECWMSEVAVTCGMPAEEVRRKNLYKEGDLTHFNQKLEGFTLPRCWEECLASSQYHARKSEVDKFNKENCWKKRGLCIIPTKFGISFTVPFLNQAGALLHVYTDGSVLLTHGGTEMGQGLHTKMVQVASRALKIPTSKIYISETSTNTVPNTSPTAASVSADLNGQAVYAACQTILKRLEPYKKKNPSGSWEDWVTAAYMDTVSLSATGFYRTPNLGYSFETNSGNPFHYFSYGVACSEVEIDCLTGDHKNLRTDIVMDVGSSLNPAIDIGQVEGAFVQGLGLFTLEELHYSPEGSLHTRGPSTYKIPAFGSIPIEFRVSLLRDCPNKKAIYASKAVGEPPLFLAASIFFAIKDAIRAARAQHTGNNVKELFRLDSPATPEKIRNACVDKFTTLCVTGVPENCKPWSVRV
URAT1 (SLC22A12), sequence (Q96S37 whole entry): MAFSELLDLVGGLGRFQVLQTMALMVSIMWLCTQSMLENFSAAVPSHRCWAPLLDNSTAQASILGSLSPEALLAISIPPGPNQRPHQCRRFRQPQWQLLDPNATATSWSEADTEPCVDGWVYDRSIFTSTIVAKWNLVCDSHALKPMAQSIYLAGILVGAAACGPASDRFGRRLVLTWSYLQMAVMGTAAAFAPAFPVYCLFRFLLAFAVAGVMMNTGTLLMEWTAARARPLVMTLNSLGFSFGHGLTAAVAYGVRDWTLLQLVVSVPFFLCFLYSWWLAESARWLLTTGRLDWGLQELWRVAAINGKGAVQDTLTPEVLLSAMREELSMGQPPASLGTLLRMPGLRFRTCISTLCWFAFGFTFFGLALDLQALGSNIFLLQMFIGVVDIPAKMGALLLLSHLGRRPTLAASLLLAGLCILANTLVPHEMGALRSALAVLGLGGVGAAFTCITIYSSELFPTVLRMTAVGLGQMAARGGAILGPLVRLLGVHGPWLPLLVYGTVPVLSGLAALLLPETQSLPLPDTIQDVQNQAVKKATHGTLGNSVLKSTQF

SMILES: O=C(Nc1ccc2n[nH]nc2c1)c1c(O)[nH]c(=O)[nH]c1=O [Formula (IIIa), N-(1H-benzo[d][1,2,3]triazol-6-yl)-6-hydroxy-2,4-dioxo-1,2,3,4-tetrahydropyrimidine-5-carboxamide]
- pIC50 [1, 3]: 5.05
- pIC50 [2, 4]: 5.87

SMILES: O=C(Nc1ccc(-c2nnn[nH]2)cc1)c1c(O)[nH]c(=O)[nH]c1=O [Formula (IIa), N-(4-(2H-tetrazol-5-yl)phenyl)-6-hydroxy-2,4-dioxo-1,2,3,4-tetrahydropyrimidine-5-carboxamide]
- pIC50 [1, 3]: 6.17
- pIC50 [2, 4]: 5.02

SMILES: O=C(Nc1ccc(-c2nnn[nH]2)cc1)c1c(O)[nH]c(=S)[nH]c1=O [Formula (IIb), N-(4-(2H-tetrazol-5-yl)phenyl)-6-hydroxy-4-oxo-2-thioxo-1,2,3,4-tetrahydropyrimidine-5-carboxamide]
- pIC50 [1, 3]: 6.41
- pIC50 [2, 4]: 3.83

SMILES: O=C(Nc1ccc(-n2cnnn2)cc1)c1c(O)[nH]c(=O)[nH]c1=O [Formula (IIc), N-(4-(1H-tetrazol-1-yl)phenyl)-6-hydroxy-2,4-dioxo-1,2,3,4-tetrahydropyrimidine-5-carboxamide]
- pIC50 [1, 3]: 4.68

SMILES: O=C(Nc1ccc(-c2cnn[nH]2)cc1)c1c(O)[nH]c(=O)[nH]c1=O [Formula (IIe), N-(4-(1H-1,2,3-triazol-5-yl)phenyl)-6-hydroxy-2,4-dioxo-1,2,3,4-tetrahydropyrimidine-5-carboxamide]
- pIC50 [1, 3]: 5.91 and 5.94
- pIC50 [2, 4]: 6.16

SMILES: O=C(Nc1ccc(-c2cnn[nH]2)cc1)c1c(O)[nH]c(=S)[nH]c1=O [Formula (IIf), N-(4-(1H-1,2,3-triazol-5-yl)phenyl)-6-hydroxy-4-oxo-2-thioxo-1,2,3,4-tetrahydropyrimidine-5-carboxamide]
- pIC50 [1, 3]: 7.22 and 7.05
- XO inhibition (in words) [1]: comparable to febuxostat
- pIC50 [2, 4]: 4.95

SMILES: NS(=O)(=O)c1ccc(NC(=O)c2c(O)[nH]c(=O)[nH]c2=O)cc1 [Formula (Ia), 6-hydroxy-2,4-dioxo-N-(4-sulfamoylphenyl)-1,2,3,4-tetrahydropyrimidine-5-carboxamide]
- pIC50 [1, 3]: ≤ 3.52

SMILES: CS(=O)(=O)Nc1ccc(NC(=O)c2c(O)[nH]c(=O)[nH]c2=O)cc1 [Formula (Ib), 6-hydroxy-N-(4-(methylsulfonamido)phenyl)-2,4-dioxo-1,2,3,4-tetrahydropyrimidine-5-carboxamide]
- pIC50 [1, 3]: 4.06

SMILES: O=C(Nc1ccc(NS(=O)(=O)C(F)(F)F)cc1)c1c(O)[nH]c(=O)[nH]c1=O [Formula (Ic), 6-hydroxy-2,4-dioxo-N-(4-(trifluoromethylsulfonamido)phenyl)-1,2,3,4-tetrahydropyrimidine-5-carboxamide]
- pIC50 [1, 3]: 3.70

SMILES: O=C(Nc1ccc(O)c(CO)c1)c1c(O)[nH]c(=O)[nH]c1=O [Formula (Id), 6-hydroxy-N-(4-hydroxy-3-(hydroxymethyl)phenyl)-2,4-dioxo-1,2,3,4-tetrahydropyrimidine-5-carboxamide]
- pIC50 [1]: > 5.00
- pIC50 [1, 3]: 5.44
- pIC50 [2]: > 5.00
- pIC50 [2, 4]: 5.14

SMILES: O=C(Nc1ccc(-c2noc(=O)[nH]2)cc1)c1c(O)[nH]c(=O)[nH]c1=O [Formula (If), 6-hydroxy-2,4-dioxo-N-(4-(5-oxo-4,5-dihydro-1,2,4-oxadiazol-3-yl)phenyl)-1,2,3,4-tetrahydropyrimidine-5-carboxamide]
- pIC50 [1, 3]: 5.32 and 5.11
- XO inhibition (in words) [1]: active against both targets
- URAT1 inhibition (in words) [2]: active against both targets
- pIC50 [2, 4]: 5.12

SMILES: O=C(Nc1ccc(-c2noc(=O)[nH]2)cc1)c1c(O)[nH]c(=S)[nH]c1=O [Formula (Ig), 6-Hydroxy-4-oxo-N-(4-(5-oxo-4,5-dihydro-1,2,4-oxadiazol-3-yl)phenyl)-2-thioxo-1,2,3,4-tetrahydropyrimidine-5-carboxamide]
- pIC50 [1, 3]: 5.48 and 5.10
- XO inhibition (in words) [1]: acceptable XO inhibitor
- URAT1 inhibition (in words) [2]: poor URAT1 inhibitor
- pIC50 [2, 4]: < 3.82
